Source: patent US5700817A, “Cyclic lipid derivatives as potent PAF antagonists” (Pohang Iron & Steel Co., Ltd., priority 1993, dated 1997)
Each block holds one compound with its values, some of them ahead of it.

Legend:
[1] = system: PAF-induced [^14 C]serotonin release, rabbit platelets; assay: Inhibitory action on PAF-induced [14C]-serotonin release from rabbit platelets; assay type: cell-based, New Zealand white male rabbits; settings: Oryctolagus cuniculus, Platelet, PAF 1×10^-9 M; for inhibition at 0.05 µM: test compound 5 × 10^-8 M; for inhibition at 0.005 µM: test compound 5 × 10^-9 M
Experimental: The following pharmacological test examples explain the effects of the present invention in a more concrete manner.
Inhibitory action on PAF-induced [^14 ]-serotonin release
Blood was collected from the hearts of conscious New Zealand white male rabbits weighing 2 to 3 kg. The blood was immediately subjected to a centrifuge at 1400 rpm for 10 minutes to obtain platelet rich plasma(PRP).PRP was incubated with a trace amount of [^14 C]-serotonin for 20 minutes at 22° C. Prelabelled platelets were prepared by centrifugation at 3500 rpm for 10 minutes. The test compound was added to 80 μl of [^14 C]serotonin-labeled platelets in plastic test tubes, and the mixture was incubated for 2 minutes. PAF (1×10 ^-9 M) was then added to the reaction mixture and incubated for additional 2 minutes at which time 10 μl of cold formaldehyde was added to stop the reactions. The tubes were immediately cooled to 4° C. and centrifuged at 12000 rpm for 2 minutes. The supernatants (80 μl) were assayed for percentage of [^14 C]serotonin release by the conventional methods of measuring ^14 C counts.

PAF receptor = target: T1, PAF receptor (Oryctolagus cuniculus, UniProt G1TEI7); assay: PAF Receptor Binding Assay ([3H]C18-PAF, rabbit platelet membranes)
T1 construct: Platelet membranes were prepared by centrifugation and washing; tissue Pel-Freez (Rogers, AR), supplier of the citrated whole rabbit blood; host or cells: rabbit platelet membranes
T1 sequence (G1TEI7 1-342): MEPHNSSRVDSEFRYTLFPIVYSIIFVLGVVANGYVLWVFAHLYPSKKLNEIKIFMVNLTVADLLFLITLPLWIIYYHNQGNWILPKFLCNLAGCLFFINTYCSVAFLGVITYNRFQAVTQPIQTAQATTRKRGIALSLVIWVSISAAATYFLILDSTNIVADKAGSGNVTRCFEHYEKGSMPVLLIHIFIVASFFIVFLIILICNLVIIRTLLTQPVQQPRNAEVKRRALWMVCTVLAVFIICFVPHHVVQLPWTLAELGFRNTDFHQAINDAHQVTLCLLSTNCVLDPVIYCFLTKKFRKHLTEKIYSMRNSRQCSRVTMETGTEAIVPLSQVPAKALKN
Experimental: PAF Receptor Binding Assay Citrated whole rabbit blood was obtained from Pel-Freez(Rogers, AR). Rabbit platelets were prepared by centrifugation and washing. The platelets were lysed by freeze-thawing and sonification; Platelet membranes were prepared by centrifugation and washing. Final membrane preparation were stored frozen in 10 mM Tris/5 mM MgCl2 /2 mM EDTA (TME buffer, pH 7.0) with 0.25M sucrose added for membrane stabilization. […] The final volume of the assay was 1001 μl. The assay was conducted in Millititer-GV™(Millipore Corp.) filtration plates; incubation time was for 60 minutes at room temperature (22°-23° C.). […] The filters were dried and removed. The bound radioactivity was quantiated with a Berthold TLC-Linear Analyzer model LB2842. […] Experiments were repeated at least once. […] Ki values of inhibitory binding constants were calculated according to the methods of the literature[Cheng et al., Biochem.

[2] = system: PAF-induced platelet aggregation, rabbit platelets; assay: Inhibitory action on PAF-induced platelet aggregation (platelet-rich plasma); assay type: cell-based, New Zealand male rabbits; settings: Oryctolagus cuniculus, PAF 5×10^-9 M, 37° C., turbidimetry, rabbit PRP
Experimental: Blood was collected from the hearts of conscious New Zealand male rabbits weighing 2 to 3 kg using citric acid as an anticoagulant (one volume part of 3% citric acid relative to 9 volume parts of the whole blood). A platelet-rich plasma(PRP) was prepared by centrifugation at 1000 rpm for 10 minutes. The remaining blood after collecting the PRP was subjected to a centrifuge at 3000 rpm for 10 minutes to obtain platelet poor plasma(PPP). PRP was diluted with PPP to adjust the number of platelets to about 3×10^5 /μl. Solution of test compound (30 μl) was added to the PRP(270 μl), and after incubation for 2 minutes at 37° C., 30 μl aliquot of PAF(5×10^-9 M) was added. Platelet aggregation was then examined by means of turbidimetry [Born, Nature, 194, 927(1962)] with dual channel aggregometer (Chrono-Log. Corp., Havertown, Pa.). As the control, physiological saline without test sample was used. The platelet aggregation inhibiting activities of the test sample are expressed as IC50, that is the concentration of the compound at which 50% of the aggregation is inhibited.

Structure (SMILES): CCCCCCCCCCCCCCCCCCNC(=O)OC[C@@H]1C[C@H](COC(=O)N(Cc2cccc[n+]2CC)C(C)=O)O1 (relative stereo) [Example 3, cis-2-[[N-Acetyl-N-[[[4-[[(octadecylcarbamoyl)oxy]methyl]-2-oxetanyl]methoxy]carbonyl]amino]methyl]-1-ethyl-pyridinium iodide]
inhibition at 0.05 µM [1]: 85%

Structure (SMILES): CCCCCCCCCCCCCCCCCCNC(=O)OCC1(COC(=O)N(Cc2cccc[n+]2CC)C(C)=O)COC1 [Example 6, 2-[[-Acetyl-N-[[[3-[[(octadecylcarbamoyl)oxy]methyl]-3-oxetanyl]methoxy]carbonyl]amino]methyl]-1-ethyl-pyridinium iodide]
inhibition at 0.005 µM [1]: 75%

Ki (PAF receptor): 34 nM
Structure (SMILES): CCCCCCCCCCCCCCCCCCNC(=O)OC[C@H]1C[C@H](COC(=O)N(Cc2cccc[n+]2CC)C(=O)c2ccccc2OC)S1 (relative stereo) [Example 30, trans-2-[[N-(2-Methoxy)benzoyl-N-[[[4-[[(octadecylcarbamoyl)oxy]ethyl]-2-thietanyl]methoxy]carbonyl]amino]-1-ethyl-pyridinium chloride]

Structure (SMILES): CCCCCCCCCCCCCCCCOC[C@H]1C[C@@H](COC(=O)N(Cc2cccc[n+]2CC)C(C)=O)O1 (relative stereo) [Example 1, cis-2-[[N-Acetyl-N-[[[2-[(hexadecyloxy)methyl]-4-oxetanyl]methoxy]carbonyl]amino]methyl]-1-ethyl-pyridinium iodide]
inhibition at 0.2 µM ([1]; test compound 2 × 10^-7 M): 90%

Structure (SMILES): CCCCCCCCCCCCCCCCCCNC(=O)OCC1(COC(=O)CCCCC[n+]2ccsc2)COC1 [Example 13, 3-[5-[[[3-[[(Octadecylcarbamoyl)oxy]methyl]-3-oxetanyl]methoxy]carbonyl]pentyl]thiazolium bromide]
inhibition at 0.05 µM [1]: 85%

Structure (SMILES): CCCCCCCCCCCCCCCCCCNC(=O)OC[C@H]1C[C@H](COC(=O)N(Cc2cccc[n+]2CC)C(C)=O)O1 (relative stereo) [Example 5, trans-2-[[N-Acetyl-N-[[[4-[[(octadecylcarbamoyl)oxy]methyl]-2-oxetanyl]methoxy]carbonyl]amino]methyl]-1-ethyl-pyridinium iodide]
inhibition at 0.05 µM [1]: 95%
inhibition at 0.005 µM [1]: 70%

IC50 [2]: 19 nM
Structure (SMILES): CCCCCCCCCCCCCCCCOC[C@H]1C[C@H](COC(=O)N(Cc2cccc[n+]2CC)C(=O)c2ccccc2OC)S1 (relative stereo) [Example 33, trans-2-[[N-(2-Methoxy)benzoyl-N-[[[4-[(hexadecyloxy)methyl]-2-thietanyl]methoxy]carbonyl]amino]methyl]-1-ethyl-pyridinium chloride]

Ki (PAF receptor): 104 nM
Structure (SMILES): CCCCCCCCCCCCCCCCCCNC(=O)OC[C@H]1C[C@H](COC(=O)N(Cc2cccc[n+]2CC)C(C)=O)N1C(=O)c1ccccc1 (relative stereo) [Example 44, 2-[[N-Acetyl-N-[[[4-[[(octadecylcarbamoyl)oxy]methyl]-1-benzoylazetidine-2-yl]methoxy]carbonyl]amino]methyl]-1-ethyl-pyridinium chloride]
